Each block holds one molecule with its values, some of them ahead of it. Non-standard residues stand in square brackets, D forms with d. Residues, ends and D or L forms follow the SMILES beside them. pY = N[C@@H](Cc1ccc(OP(=O)(O)O)cc1)C(=O)O
How the values were obtained:
Vav2-SH2 domain [1] = target: T1, Vav2-SH2 domain (Homo sapiens, UniProt P52735); experiment: ITC binding of APP peptides to Vav2-SH2; details: 298 K, 10 mM Tris/HCl, 100 mM NaCl
T1 construct: the DNA fragment encoding the SH2 domain of Vav2 (residues 659–771) was cloned into a pET28a (+) (Novagen) plasmid; 6xHis (N, cleaved yes); made in house; host or cells: Escherichia coli BL21 (DE3)
T1 sequence (P52735 659-771): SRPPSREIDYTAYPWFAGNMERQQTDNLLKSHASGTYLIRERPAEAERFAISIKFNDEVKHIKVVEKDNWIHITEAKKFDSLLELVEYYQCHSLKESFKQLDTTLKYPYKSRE
Text: For NMR and ITC experiments, the DNA fragment encoding the SH2 domain of Vav2 (residues 659–771) was cloned into a pET28a (+) (Novagen) plasmid as described previously, generating a fusion protein with an N-terminus 6 × His tag. For GST pull-down experiments, the Vav2-SH2 was subcloned into pGEX4T-1 vector. The APP expression plasmid pAPPsw and the Vav2 expression plasmid pCMV5-myc-Vav2 were constructed as previously described[55],[66]. Mutants were generated by PCR mediated site-directed mutagenesis. All the constructs were verified by DNA sequencing.
The recombinant plasmids harboring His-tagged or GST-tagged Vav2-SH2 were transformed into Escherichia coli BL21 (DE3) (Novagen) strain. Cells were grown at 37 °C up to an A600 nm of 0.8, and then were induced with 0.5 mM IPTG at 25 °C for 8 h. […] Protein concentrations were estimated with absorbance spectroscopy using the molar absorption coefficient. […]
ITC experiments were performed at 298 K on a PEAQ-ITC titration calorimeter (MicroCal, Northampton, MA). […] ITC data were analyzed with a single-site binding model using Microcal PEAQ-ITC software.

[2] = target: APP pY682 peptide (Homo sapiens) (UniProt P05067); details: cited from earlier work
Vav2-SH2 domain [3] = target: T1, Vav2-SH2 domain; experiment: NMR titration (2D 1H-15N HSQC) of 15N-labeled Vav2-SH2 with APP peptides; format: binding; details: 0.1 mM 15N-Vav2-SH2, 20 mM Tris/HCl, 100 mM NaCl, 3 mM DTT, 90% H2O/10% D2O, pH 7.0, 293 K, 600 MHz; protein:peptide up to 1:3 (APP-pY682) or 1:4 (APP-Y682)
Protocol: The recombinant plasmids harboring His-tagged or GST-tagged Vav2-SH2 were transformed into Escherichia coli BL21 (DE3) (Novagen) strain. Cells were grown at 37 °C up to an A600 nm of 0.8, and then were induced with 0.5 mM IPTG at 25 °C for 8 h. For the production of uniformly ^15N-labeled samples, cells were grown in minimal medium using ^15NH4CL (0.5 g/L) as the sole nitrogen source. ^15N-NH4Cl was purchased from Cambridge Isotope Laboratories, Inc. The His-tagged proteins were purified by a chelated-nickel column followed by Thrombin protease treatment to remove the tag as previous described. The GST and GST fusion proteins were purified using immobilized glutathione. All proteins were further purified on a Superdex75 gel-filtration column (GE Healthcare, Piscataway, NJ, USA). The purity of proteins was confirmed by SDS–PAGE. Protein concentrations were estimated with absorbance spectroscopy using the molar absorption coefficient. […]
The NMR sample of the apo Vav2-SH2 contained 0.1 mM of protein was dissolved in NMR buffer: 20 mM Tris/HCl with 100 mM NaCl, 3 mM DTT in 90% H2O, 10% D2O (pH 7.0). […] A series of ^1H–^15N HSQC spectra were recorded as the titrant gradually titrated into the protein solutions using the Bruker hsqcfpf3gpphwg pulse program. […] NMR data were processed with NMRPipe[67] and analyzed using Sparky3 (Goddard and Kneller, University of California, San Francisco). […]

full-length APPsw = experiment: GST pull-down of full-length APPsw from 20E2 cell lysate; format: binding; details: 20E2 cell lysate 0.2 mg, 1 mg GST fusion on glutathione-agarose, 2 h; western blot (C20)
Protocol: The recombinant plasmids harboring His-tagged or GST-tagged Vav2-SH2 were transformed into Escherichia coli BL21 (DE3) (Novagen) strain. Cells were grown at 37 °C up to an A600 nm of 0.8, and then were induced with 0.5 mM IPTG at 25 °C for 8 h. For the production of uniformly ^15N-labeled samples, cells were grown in minimal medium using ^15NH4CL (0.5 g/L) as the sole nitrogen source. ^15N-NH4Cl was purchased from Cambridge Isotope Laboratories, Inc. The His-tagged proteins were purified by a chelated-nickel column followed by Thrombin protease treatment to remove the tag as previous described. The GST and GST fusion proteins were purified using immobilized glutathione. All proteins were further purified on a Superdex75 gel-filtration column (GE Healthcare, Piscataway, NJ, USA). The purity of proteins was confirmed by SDS–PAGE. Protein concentrations were estimated with absorbance spectroscopy using the molar absorption coefficient.
One hundred microliter glutathione-agarose beads were incubated with 1 mg purified GST or indicated GST-SH2 fusions and the mutant GST-SH2^R680A for 2 h at 4 °C in GST binding buffer (20 mM Tris/HCl, pH 7.4, 150 mM NaCl and 1 mM EDTA, 0.5% TritonX-100). […] After washing 4 times with GST binding buffer, beads were boiled in SDS sample buffer, run on 12% SDS–PAGE gel and analyzed by Coomassie or immunoblotting.

Sequence of APP pY682 peptide (Homo sapiens) (P05067 whole entry, looked up, the tested form may be a part): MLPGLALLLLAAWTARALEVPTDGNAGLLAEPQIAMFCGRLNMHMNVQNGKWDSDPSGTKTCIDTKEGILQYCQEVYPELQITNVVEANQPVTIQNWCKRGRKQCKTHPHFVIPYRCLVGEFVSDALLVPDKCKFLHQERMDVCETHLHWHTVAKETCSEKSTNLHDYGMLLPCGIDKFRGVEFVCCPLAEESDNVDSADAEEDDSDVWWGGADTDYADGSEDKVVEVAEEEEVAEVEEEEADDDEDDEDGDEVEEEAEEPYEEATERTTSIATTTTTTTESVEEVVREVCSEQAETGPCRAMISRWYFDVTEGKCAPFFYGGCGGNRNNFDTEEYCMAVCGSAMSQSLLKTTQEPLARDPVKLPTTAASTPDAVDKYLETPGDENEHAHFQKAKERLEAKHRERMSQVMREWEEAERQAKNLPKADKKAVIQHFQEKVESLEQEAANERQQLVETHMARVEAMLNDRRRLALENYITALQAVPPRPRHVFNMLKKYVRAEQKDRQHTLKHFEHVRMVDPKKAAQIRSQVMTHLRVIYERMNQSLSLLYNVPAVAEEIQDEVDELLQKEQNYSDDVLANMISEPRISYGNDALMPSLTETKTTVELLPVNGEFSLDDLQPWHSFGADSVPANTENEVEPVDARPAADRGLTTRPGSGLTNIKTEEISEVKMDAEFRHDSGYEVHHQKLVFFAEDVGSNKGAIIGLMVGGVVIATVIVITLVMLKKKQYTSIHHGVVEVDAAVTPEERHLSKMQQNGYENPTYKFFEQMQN

Kd (Vav2-SH2 domain [1]; pH 7.4, 0.75 mM peptide titrated into 30 μM Vav2-SH2, single-site binding model): 860 nM
Molecule: C[C@@H](O)[C@H](NC(=O)[C@@H]1CCCN1C(=O)[C@H](CC(N)=O)NC(=O)[C@H](CCC(=O)O)NC(=O)[C@H](Cc1ccc(OP(=O)(O)O)cc1)NC(=O)CNC(=O)[C@H](CC(N)=O)NC(=O)[C@@H](N)CCC(N)=O)C(=O)O [APP-pY682] (H-QNG[pY]ENPT-OH)

Molecule: Grb2 SH2 (from UniProt P62993)
Kd [2]: 290 nM

binding in ITC (result in words) (Vav2-SH2 domain [1]; pH 7.4, 0.75 mM peptide titrated into 30 μM Vav2-SH2): no binding
Molecule: QNGYENPT [APP-Y682]
chemical shift perturbations (CSPs) in 1H-15N HSQC of Vav2-SH2 (Vav2-SH2 domain [3]): did not induce any chemical shift perturbations

B1: GST-Vav2-SH2: wild-type GST-Vav2-SH2 protein (protein)
chain: SRPPSREIDYTAYPWFAGNMERQQTDNLLKSHASGTYLIRERPAEAERFAISIKFNDEVKHIKVVEKDNWIHITEAKKFDSLLELVEYYQCHSLKESFKQLDTTLKYPYKSRE
modifications: left off: GST, end not stated, kept
notes: wild-type GST-Vav2-SH2 protein
binding to full-length APPsw in GST pull-down (result in words) (full-length APPsw): bound selectively to full-length APPsw

B2: R680A mutant: R680A mutant of GST-Vav2-SH2 protein (negative control) (protein)
chain: SRPPSREIDYTAYPWFAGNMEAQQTDNLLKSHASGTYLIRERPAEAERFAISIKFNDEVKHIKVVEKDNWIHITEAKKFDSLLELVEYYQCHSLKESFKQLDTTLKYPYKSRE
modifications: left off: GST, end not stated, kept
binding to full-length APPsw in GST pull-down (result in words) (full-length APPsw): not GST alone or the R680A mutant bound selectively to full-length APPsw
